“Also recorded” adds a separate entry of the source. Square brackets hold non-standard residues; d marks the D form. Ends that are not written are not given here. Hyp = O=C(O)[C@@H]1C[C@@H](O)CN1
Test system: human peripheral blood monocytes (HPBMs) activated with LPS
Assay: LPS-induced IL-1β production (ELISA) from activated HPBMs incubated with LPS and peptide
Type: cell-based
Details: for effect on LPS-induced IL-1β production from HPBMs: LPS 3.3×10^−7 M plus peptide 10^−7, 10^−8 or 10^−9 M, compared with LPS alone, FIG. 3; for effect on LPS-induced IL-1β production at all concentrations studied: all peptide concentrations studied (10^−7 to 10^−9 M), FIGS. 3B-D
Method: Samples (10 mg each) of peptide p1 (Lot #10055791, Genemed Synthesis Inc., San Francisco, Calif.), p2 (Lot #10059702, Genemed Synthesis Inc.) and p3 (Lot #10059701, Genemed Synthesis Inc.) were obtained with >98% purity. Each peptide was diluted with phosphate buffered saline (PBS, […], pH 7.2, 20012-043, Invitrogen Corp., Carlsbad, Calif.) yielding solutions of 10 mg/mL. The peptide solutions were incubated at 4° C. for 24 hours, then stored at −80° C. until required. Glucagon (G2044, Sigma-Aldrich, St. Louis, Mo.) was stored, defrosted and treated in an identical manner to p1, p2 and p3.
Human peripheral blood monocytes were isolated from whole blood supplied by a healthy […] as follows. A 45 mL sample was drawn using 3.2% sodium citrate vacuum tubes. Whole blood was then diluted with a 2.5 mM PBS solution (0.1M, […], Sterile, S02131, Teknova Inc., Hollister, Calif.) to form a solution having a 1:2 ratio of blood:PBS solution. Red blood cells were subsequently removed by density gradient separation using a 1:1 ratio of Histopaque-1077 (Sigma-Aldrich) and centrifuged for 30 minutes at 400×g at 25° C. The plasma layer was removed by aspiration, and the buffy layer, comprising lymphocytes, monocytes and platelets, was collected into two 50 mL conical tubes. To remove the excess histopaque, platelets and plasma, the cells were centrifuged at 250×g for an additional 10 minutes at 4° C. The supernatant was removed and the cells resuspended in 2.5 mM PBS sodium citrate and centrifuged again. The platelet-enriched supernatant was removed after the second wash, leaving a cell pellet in each of the two tubes.
The remainder of the monocyte isolation was carried out using a MS 130-041-201 column (MACS, Miltenyi Biotec, Bergisch Gladbach, Germany) and Human Monocyte Isolation Kit II (MACS, Miltenyi Biotec) as outlined by the manufacturer. The column was washed with 1 mL of 1% heat inactivated fetal bovine serum (1% HI-FBS, USA origin, sterile-filtered, cell culture tested, hybridoma tested, F2442 Sigma-Aldrich) in a PBS sodium citrate solution. The cell pellets were combined into one tube. The cell solution was centrifuged at 300×g at 4° C. and the supematant removed before adding 30 microliters of 1% HI-FBS, 20 microliters FCR blocking agent and 20 microliters monocyte biotin-antibody cocktail per 10^7 cells to the pellet. The tube was lightly agitated then chilled for 10 minutes at 4° C. Anti-biotin microbeads (40 microliters) and 30 microliters of additional 1% HI-FBS per 10^7 cells were added to each tube. The tube was vortexed for three to five seconds to mix, then set to chill at 4° C. for another 15 minutes.
After the incubation at 4° C., 2 mL of 1% HI-FBS were added, and the sample was centrifuged for 10 minutes at 300×g at 25° C. to remove excess antibodies and beads. The supernatant was removed and the pellet carefully re-suspended in 500 microliters of 1% HI-FBS. This cell solution was added to the column, and no further fluid was added until the flow of solution through the column had stopped. The tube and column were washed three times with 500 microliters of 1% HI-FBS, and the fluid was collected for cell culture. Subsequent fluorescence activated cell sorter (FACS) analysis of tissue culture samples confirmed a monocyte purity of >82%. Monocytes were seeded at 5×10^5 per well and cultured in 10% FBS RPMI 1640 and allowed to incubate at 37° C. in 5% CO2.
Because the peptides under investigation can spontaneously form triple-helical structures in solution, the peptides were heated to 90° C. for two minutes prior to introducing them to HPBM cultures to ensure that unfolded peptides, corresponding to the collagen-degradation products, were used for the experiments. The peptide solutions were then diluted with RPMI 1640 10% FBS at 37° C., yielding a final concentration of 1 microgram/mL. Serial dilutions of the peptide samples were performed to obtain the solutions at the desired concentration. […]

Row | Sequence | effect on LPS-induced IL-1β production from HPBMs | time at which elevated IL-1β levels began, peptide p1 relative to peptide p3 (LPS 3.3×10^−7 M plus peptide, sampling every four hours for 28 hours) | effect on LPS-induced IL-1β production at all concentrations studied (LPS 3.3×10^−7 M) | effect on LPS-induced IL-1β production at a relatively high concentration of peptide (LPS 3.3×10^−7 M, relatively high peptide concentration (close to that in synovial fluid of RA patients), FIG. 3A/3D)
1 | POGPOGPOGPOGPOGPOGPOGPOGPOGPOG [peptide p1] | additive effect; also recorded: augmented | later time | augment | 
2 | POGPOGPOGAOGLRGGAGPAGPOGPOGPOG (P[Hyp]GP[Hyp]GP[Hyp]GA[Hyp]GLRGGAGPAGP[Hyp]GP[Hyp]GP[Hyp]G; ends and bridges not checked) [peptide p3, models a relatively imino-poor but relatively rigid collagen segment near a gelatinase scissile bond, flanked by POG triplets] | additive effect; also recorded: greatest effect; also recorded: augmented |  | augment | 
3 | HSQGTIFTSDYSKYLDSRRAQDFVQWLMNT [peptide p0, reference compound] | no significant effect |  |  | not statistically significant

— patent US20120058948A1, “Collagen peptides as immune modulators” (priority 2006, published 2012)
